Source: patent US7186730B2, “Bicyclic nitrogen-containing heterocyclic derivatives for use as antibacterials” (priority 2001, dated 2007)
Counter-ions that a name gives are not always drawn.

Test: MIC of test compounds against various organisms
Format: cell-based
Conditions: not given
Description: The MIC (μg/ml) of test compounds against various organisms was determined: S. aureus Oxford, S. aureus WCUH29, S. pneumoniae 1629, S. pneumoniae N1387, S. pneumoniae ERY 2, E. faecalis I, E. faecalis 7,H. influenzaeQ1, H. influenzae NEMC1, M. catarrhalis 1502.

`COc1ccc2nccc(NC(=O)C3CCN(CC(O)c4cnc5c(c4)NC(=O)CS5)CC3)c2n1` (stereo not drawn) [Example 15, R and S-1-[2-Hydroxy-2-(2-oxo-2,3-dihydro-1H-pyrido[2,3-b][1,4]thiazin-7-yl)-ethyl]-piperidine-4-carboxylic acid (6-methoxy-[1,5]naphthyridin-4-yl)-amide hydrochloride] and `COc1ccc2nccc(NC(=O)C3CCN(CCc4cc5c(cn4)OCCO5)CC3)c2n1` [Example 16, 1-[2-(2,3-Dihydro-[1,4]dioxino[2,3-c]pyridin-7-yl)-ethyl]-piperidine-4-carboxylic acid (6-methoxy-[1,5]naphthyridin-4-yl)-amide hydrochloride] cannot be ordered by MIC: no more than 4 mg/L for the first, no more than 4 mg/L for the second.

`COc1ccc2nccc(OCC3CCN(CCc4ccc5c(c4)OCCO5)CC3)c2n1` [Example 21, 8-{1-[2-(2,3-Dihydro-benzo[1,4]dioxin-6-yl)-ethyl]-piperidin-4-ylmethoxy}-2-methoxy-[1,5]naphthyridine hydrochloride] gave an MIC of no more than 64 mg/L.

Same assay, conditions: versus all these organisms (10-strain panel); read-out: MIC

`COc1ccc2nccc(NC(=O)C3CCN(CCc4ccc5c(c4)NC(=O)CS5)CC3)c2n1` [Example 1, 1-[2-(3-Oxo-3,4-dihydro-2H-benzo[1,4]thiazin-6-yl)-ethyl]-piperidine-4-carboxylic acid (6methoxy-[1,5]naphthyridinylaramide oxalate] and `COc1ccc2nccc(NC(=O)C3CCN(CCc4ccc5c(c4)NC(=O)CO5)CC3)c2n1` [Example 7, 1-[2-(3-Oxo-3,4-dihydro-2H-benzo-[1,4]oxazin-6-yl)ethyl]-piperidine-4-carboxylic acid (6-methoxy-[1,5]naphthyridin-4-yl)-amide, dioxalate] cannot be ordered by MIC: no more than 4 mg/L for the first, no more than 16 mg/L for the second.

`COc1ccc2nccc(NC(=O)C3CCN(CCc4ccc5c(c4)OCO5)CC3)c2n1` [Example 2, 1-(2-Benzo[1,3]dioxol-5yl-ethyl)-piperidine4-carboxylic acid (6-methoxy-[1,5]naphthyridin-4-yl)amide, dioxalate] and `COc1ccc2nccc(NC(=O)C3CCN(CCc4ccc5c(c4)OCCO5)CC3)c2n1` [Example 3, 1-[2-(2,3-Dihydro-benzo[1,4]dioxin-6-yl)-ethyl]-piperidine-4-carboxylic acid (6-methoxy-[1,5]naphthyridin-4-yl)-amide, dioxalate] cannot be ordered by MIC: no more than 4 mg/L for the first, no more than 4 mg/L for the second.

`COc1ccc2nccc(NC(=O)C3CCN(CCc4nc5c(F)cccc5[nH]4)CC3)c2n1` [Example 4, 1-[2-(4-Fluoro-1H-benzoimidazol-2-yl)-ethyl]-piperidine-4-carboxylic acid (6-methoxy-[1,5]naphthyridin-4-yl)-amide, dioxalate] and `COc1ccc2nccc(NC(=O)C3CCN(CCc4cnc5ccccc5n4)CC3)c2n1` [Example 9, 1-(2-Quinoxalin-2-yl-ethyl)piperidine-4-carboxylic acid (6-methoxy-[1,5]naphthyridin-4-yl)-amide] cannot be ordered by MIC: no more than 4 mg/L for the first, no more than 64 mg/L for the second.

`COc1ccc2nccc(NC(=O)C3CCN(CCc4ccc5nsnc5c4)CC3)c2n1` [Example 5, 1-(2-Benzo[1,2,5]thiadiazol-5-yl-ethyl)-piperidine-4-carboxylic acid (6-methoxy-[1,5]naphthyridin-4-yl)-amide, dioxalate] and `COc1ccc2nccc(NC(=O)C3CCN(CCc4ccc5c(c4)oc(=O)n5C)CC3)c2n1` [Example 6, 1-[2-(3-Methyl-2-oxo-2,3-dihydro-benzooxazol-6-yl)-ethyl]-piperidine-4-carboxylic acid (6-methoxy-[1,5]naphthyridin-4-yl)-amide, dioxalate] cannot be ordered by MIC: no more than 64 mg/L for the first, no more than 64 mg/L for the second.

`COc1ccc2nccc(NC(=O)C3CCN(CC(=O)c4ccc5c(c4)NC(=O)CS5)CC3)c2n1` [Example 11, 1-[2-Oxo-2-(3-oxo-3,4dihydro-2H-benzo[1,4]thiazin-6-yl)-ethyl]-piperidine-4-carboxylic acid (6-methoxy-[1,5]naphthyridin-4-yl)-amide oxalate] and `COc1ccc2nccc(NC(=O)C3CCN(CC(O)c4ccc5c(c4)NC(=O)CS5)CC3)c2n1` (stereo not drawn) [Example 12, R,S-1-[2-Hydroxy-2-(3-oxo-3,4-dihydro-2H-benzo[1,4]thiazin-6-yl)-ethyl]-piperidine-4-carboxylic acid (6methoxy-[1,5]naphthyridin-4-yl)-amide oxalate] cannot be ordered by MIC: no more than 64 mg/L for the first, no more than 4 mg/L for the second.

`COc1ccc2nccc(NC(=O)C3CCN(CC(=O)c4ccc5c(c4)NC(=O)CO5)CC3)c2n1.O=C(O)C(=O)O` [Example 13, 1-[2-Oxo-2-(3-oxo-3,4-dihydro-2H-benzo[1,4]oxazin-6-yl)ethyl]-piperidine-4-carboxylic acid (6-methoxy-[1,5]naphthyridin-4-yl)-amide oxalate] and `COc1ccc2nccc(NC(=O)C3CCN(CC(O)c4ccc5c(c4)NC(=O)CO5)CC3)c2n1` (stereo not drawn) [Example 19, R,S-1-[2-Hydroxy-2-(3-oxo-3,4-dihydro-2H-benzo[1,4]oxazin-6-yl)-ethyl]-piperidine-4-carboxylic acid (6-methoxy-[1,5]naphthyridin-4-yl)-amide oxalate] cannot be ordered by MIC: no more than 4 mg/L for the first, no more than 16 mg/L for the second.

`COc1ccc2nccc(NC(=O)C3CCN(CC(=O)c4ccc5c(c4)OCCO5)CC3)c2n1` [Example 14, 1-[2-(2,3-Dihydro-benzo[1,4]dioxin-6-yl)-2-oxo-ethyl]-piperidine-4-carboxylic acid (6methoxy-[1,5]naphthyridin-4-yl)-amide oxalate] and `COc1ccc2nccc(NC(=O)C3CCN(CC(O)c4ccc5c(c4)OCCO5)CC3)c2n1` (stereo not drawn) [Example 18, R,S-1-[2-(2,3-Dihydro-benzo[1,4]dioxin-6-yl)-2-hydroxy-ethyl]-piperidine-4-carboxylic acid (6-methoxy-[1,5]naphthyridin-4-yl)-amide oxalate] cannot be ordered by MIC: no more than 16 mg/L for the first, no more than 4 mg/L for the second.

`COc1ccc2nccc(OCC3CCN(CC(O)c4ccc5c(c4)NC(=O)CS5)CC3)c2n1` (stereo not drawn) [Example 17, R,S-6-{1-Hydroxy-2-[4-(6methoxy-[1,5]naphthyridin-4-yloxymethyl)-piperidin-1-yl]-ethyl}-4H-benzo[1,4]thiazin-3-one hydrochloride] showed an MIC of no more than 16 mg/L.
